Source: patent US6451814B1, “Heterocyclic β-3 adrenergic receptor agonists” (Wyeth, priority 2000, dated 2002)

Tests used:
[1] = biological target: T1, human β3-adrenergic receptor (Homo sapiens, UniProt P13945); assay: cAMP response (SPA kit) in CHO cells transfected with human β3 adrenergic receptor; format: cell-based; details: for EC50: CHO cells expressing human β3-AR, 10^-9 M to 10^-5 M, 30 min at 37° C., cAMP by SPA, read-out: EC50(β3); for IA(β3): maximal response of compound compared to maximal response of isoproterenol at 10^-5 M, CHO cells, human β3-AR
T1 construct: Full length β3 AR clones (402 amino acids) containing the last 6 amino acids of hβ3—AR are prepared; expressed in transfected cells; host or cells: CHO cells
T1 sequence (P13945 whole entry): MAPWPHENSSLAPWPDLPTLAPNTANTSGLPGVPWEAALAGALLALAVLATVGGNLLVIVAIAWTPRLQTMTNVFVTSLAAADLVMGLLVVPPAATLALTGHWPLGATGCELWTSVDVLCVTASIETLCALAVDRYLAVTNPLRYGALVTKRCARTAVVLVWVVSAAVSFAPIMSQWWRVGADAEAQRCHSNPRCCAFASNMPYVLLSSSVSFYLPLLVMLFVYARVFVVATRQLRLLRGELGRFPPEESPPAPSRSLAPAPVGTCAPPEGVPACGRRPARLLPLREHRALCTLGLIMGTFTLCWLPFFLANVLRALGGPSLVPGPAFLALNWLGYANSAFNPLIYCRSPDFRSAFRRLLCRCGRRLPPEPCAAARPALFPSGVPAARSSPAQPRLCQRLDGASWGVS

Compound | EC50 [1] | IA(β3) [1] | melting point
Cc1ccsc1C(=O)N1CCC(Sc2ccc(CCNC[C@H](O)COc3ccc(O)cc3)cc2)CC1 [Example 106, [4-(4-{2-[(2S)-2-Hydroxy-3-(4-hydroxy-phenoxy)-propylamino]-ethyl}-phenylsulfanyl)-piperidin-1-yl]-(3-methyl-thiophen-2-yl)-methanone] | 127 nM | 0.79 | 135 to 144 °C
CCCCCCCCS(=O)(=O)N1CCC(Nc2ccc(CCNC[C@H](O)COc3ccc(O)cc3)cc2)CC1 [Example 111] | 125 nM | 0.78 | 64 to 68 °C

Stronger by EC50 [1], values ahead:

EC50 [1] | IA(β3) [1] | melting point | Compound
90 nM | 0.69 | 60 to 62 °C | O=C(OCc1ccc(F)cc1)N1CCC(Nc2ccc(CCNC[C@H](O)COc3ccc(O)cc3)cc2)CC1 [Example 121, 4-(4-{2-[(2S)-2-Hydroxy-3-(4-hydroxy-phenoxy)-propylamino]-ethyl}-phenylamino)-piperidine-1-carboxylic acid 4-fluoro-benzyl Ester]
8 nM | 1.03 | 118 to 120 °C | CS(=O)(=O)Nc1cc([C@@H](O)CNCCc2ccc(NC3CCN(c4ccc(S(=O)(=O)N5CCCCC5)cc4)CC3)cc2)ccc1O [Example 119]
1 nM | 1.1 | 134 to 136 °C | CCCCCCCCNC(=O)Nc1ccc(S(=O)(=O)N2CCC(Nc3ccc(CCNC[C@H](O)c4ccc(O)c(NS(C)(=O)=O)c4)cc3)CC2)cc1 [Example 116, N-(2-Hydroxy-5-{(1R)-1-hydroxy-2-[2-(4-{1-[4-(3-octyl-ureido)-benzenesulfonyl]-piperidin-4-ylamino}-phenyl)-ethylamino]-ethyl}-phenyl)-methanesulfonamide]
